Laboratory results taken from US9840627B2, “Application of camptothecin and derivatives thereof as antifouling agent” (priority 2013, dated 2017).
Where two headings read alike, the source gives them in different places.

Key:
Assay type in all cases: in vivo
[1] = tested on: marine large fouling organisms; conditions: for coverage ratio of fouling organisms (%, Mean ± SE): antifouling agent 20% by weight in paint, panels in sea area, Xiamen
Procedure: The panel test in natural sea area was carried out referring to the national standard GB/T5370-2007 “Method for testing antifouling panels in shallow submergence”. […] The tested panels were fixed in iron frames after the paints had dried, and they were hanged on the test buoyant rafts in the sea area near Dalipu Island in Xiamen in June, 2010. After the tested panels had been immersed in seawater up to 3, 6, 9 and 12 months, they were then photographed, and the coverage ratios of the fouling organisms in each coated sample areas were analyzed and counted. Herein, the coverage ratio of the fouling organisms is the ratio of surface area covered by marine large fouling organisms in the sample area divided by the whole surface area in the sample area (the same below), and the lower the value is, the higher the antifouling efficiency will be.

[2] = tested on: cypris larvas of Balanus albicostatus; experiment: Inhibitory effect on the attachment of barnacles (cypris larvas); conditions: 48 h, membrane filtrated seawater
Description: Barnacles are sessile Cirripedia with calcareous shells and widespread. They firmly attach to the surfaces of vessels and various offshore artificial facilities, and are one of the major marine fouling organisms as well as one of the major target organisms in the study of antifouling technology. Adults of Balanus albicostatus were collected from the rocks and piers at Baicheng Coast in Xiamen, and their cypris larvas were obtained by culturing in laboratory. It is the attachment of the cypris larvas that causes the barnacles to change from swimming life to attaching life. Thus, inhibition of the attachment of the cypris larvas can verify the antifouling activity of the compounds. CPT and 10-hydroxyl-CPT were dissolved in ethyl acetate respectively, and a series of concentration gradient were set according to the results of pre-experiment. 1 ml of each solution was taken to a petri dish respectively, 1 ml of ethyl acetate was taken to another blank petri dish serving as control group. After the solvents evaporated completely and the compounds were distributed evenly on the bottom surfaces and the side surfaces of the petri dishes, each petri dish was added with 10 ml of membrane filtrated seawater (filtrated by membrane with pore size of 0.22 μm, the same below). […]

[3] = tested on: larvas of Bugula neritina; experiment: Inhibitory effect on the attachment of Bugula larvas; conditions: 48 h, membrane filtrated seawater
Description: Bugulas are marine bryozoan and widespread in various sea areas in the world. They often attach to the surfaces of marine artificial facilities like mariculture netting, cages, vessels, buoys, etc., and they are important marine fouling organisms as well. Bugula neritina, also called multicellular Bugula, its adults were collected from the fish culture net bins in Western sea area of Xiamen and put into an aquarium filled with fresh seawater after back to the laboratory to induce the release of their swimming larvas. It is the attachment of their swimming larvas that causes the Bugulas to change from swimming life to attaching life. Thus, inhibition of the attachment of the swimming larvas can verify the antifouling activity of the compounds. CPT and 10-hydroxyl-CPT were dissolved in ethyl acetate respectively, and a series of concentration gradient were set according to the results of pre-experiment. 1 ml of each solution was taken to a petri dish respectively; 1 ml of ethyl acetate was taken to another blank petri dish serving as control group. After the solvents evaporated completely and the compounds were distributed evenly on the bottom surfaces and the side surfaces of the petri dishes, each petri dish was added with 10 ml of membrane filtrated seawater. […]

Perna viridis = experiment: Inhibitory effect on the attachment of mussels by produced byssal threads; conditions: 24 h culture at room temperature
Description: Mussels are common bivalve in marine fouling biocenoses, widespread, and are one of the major target organisms in the study of marine antifouling technology. Mussels explore surfaces by their feet, looking for attachment substrate. If proper surfaces for attaching were found, mussels would produce byssal threads to attach to them. […] Perna viridis were collected from the fish net bins in offshore sea area of Zhangzhou, and in which those with shell length of 1.4˜2.4 cm were selected and washed with seawater, followed by gent cut-off of the byssal threads. And then the Perna viridis were washed with membrane filtrated seawater. CPT were first dissolved in a trace of dimethyl sulfoxide, and then mixed with membrane filtrated seawater to prepare a series of concentration gradient. 4 ml of each solution was taken into a 12-well plate, and each well was added with one Perna viridis. 4 ml of membrane filtrated seawater containing a trace of dimethyl sulfoxide and one Perna viridis were added into the control group. Each experimental group and control group had 8 paralleled groups. After 24-hours culture at room temperature, the amount of byssal threads produced by Perna viridis were observed, and the half inhibition concentration of CPT for the attachment of Perna viridis by produced byssal threads, EC50, were determined.

| Compound | coverage ratio of fouling organisms (%, Mean ± SE) ([1]; after 3 months) [%] | coverage ratio of fouling organisms (%, Mean ± SE) ([1]; after 6 months) [%] | coverage ratio of fouling organisms (%, Mean ± SE) ([1]; after 9 months) [%] | coverage ratio of fouling organisms (%, Mean ± SE) ([1]; after 12 months) [%] | half inhibition concentration (EC50) for the attachment of cypris larvas of Balanus albicostatus [2] [µg/mL] | EC50 for the attachment of larvas of Bugula neritina [3] [µg/mL] | EC50 for the attachment of Perna viridis by produced byssal threads (Perna viridis) [µg/mL] | antifouling term ([1]; paints prepared with CPT as antifouling agent, panel test in sea area) |
| --- | --- | --- | --- | --- | --- | --- | --- | --- |
| [Cu].[O]=[Cu] [Cu2O, cuprous oxide, reference compound] | 7.23 ± 2.02 | 91.75 ± 2.90 | 70.91 ± 13.40 | 98.88 ± 0.48 |  |  |  |  |
| CC[C@@]1(O)C(=O)OCc2c1cc1n(c2=O)Cc2cc3ccccc3nc2-1 [CPT, Camptothecin (CPT)] | 0.15 ± 0.12 | 11.6 ± 6.68 | 9.03 ± 2.64 | 39.67 ± 10.43 | 1.73 | 15.02 | 10.78 | up to 12 months |
| CC[C@@]1(O)C(=O)OCc2c1cc1n(c2=O)Cc2cc3cc(O)ccc3nc2-1 [10-hydroxyl-CPT] |  |  |  |  | 1.78 | 5.93 |  |  |
